Results: patent US20190345558A1, “METHOD FOR DETERMINING SENSITIVITY TO A CDK4/6 INHIBITOR” (UNIVERSITÉ LIBRE DE BRUXELLES, priority 2016, published 2019)

How the values were obtained:
[1] = system: HCC1806; experiment: BrdU DNA incorporation assay
Procedure: One hour before fixation with methanol, 100 μM 5-Bromo-2′-deoxyuridine (BrdU, Sigma-Aldrich) and 4 μM 5-Fluoro-2′-deoxyuridine (FldU, Sigma-Aldrich) were added to the cells. Immuno-detection of DNA incorporated BrdU was performed. 4′,6-Diamidino-2-phenylindole, dilactate (DAPI, Thermo Fisher Scientific) solution (1 μg/ml) was used as nuclear counterstain and round coverslips were mounted in each well of the 96 well plate with ProLong Gold Antifade Mountant (Thermo Fisher Scientific). […] Culture plates were imaged with a Zeiss Axio Observer.Z1 wide-field microscope equipped with a 10/0.3×EC Plan Neofluar objective and an AxioCam HSm camera. For each well, a grid of 3×3 fields (each of them 660 μm×492 μm) was automatically defined using the Mark&Find option of the AxioVision software. […] Exposure times were chosen so as to maximize the signal while avoiding saturation. They were kept constant through all images within one experiment. A software-based autofocus was performed on the DAPI channel, using a general offset of 8-10 μm. A 10 μm offset was added for the A488 channel. Images were analyzed semi-automatically with a custom-made ImageJ macro. For each field of view, two masks were created, representing the areas positive for the DAPI or for both the DAPI and the BrdU stainings, respectively. Nuclei were then segmented within these masks using the “Analyze particles” function. The total number of nuclei and the area that they represent were recorded to compute the BrdU-positive to total nuclei ratios. The segmentation of the nuclei was verified visually and only values extracted from correctly segmented images were selected for further analysis. […] Each processed image was therefore systematically inspected to correct low counts and remove image with staining artefacts from the analysis. Images with less than 10 labeled nuclei were counted manually with the Image J cell counter plugin.

[2] = system: HCC38; experiment: BrdU DNA incorporation assay
Procedure: (§1) One hour before fixation with methanol, 100 μM 5-Bromo-2′-deoxyuridine (BrdU, Sigma-Aldrich) and 4 μM 5-Fluoro-2′-deoxyuridine (FldU, Sigma-Aldrich) were added to the cells. Immuno-detection of DNA incorporated BrdU was performed. 4′,6-Diamidino-2-phenylindole, dilactate (DAPI, Thermo Fisher Scientific) solution (1 μg/ml) was used as nuclear counterstain and round coverslips were mounted in each well of the 96 well plate with ProLong Gold Antifade Mountant (Thermo Fisher Scientific). […] Culture plates were imaged with a Zeiss Axio Observer.Z1 wide-field microscope equipped with a 10/0.3×EC Plan Neofluar objective and an AxioCam HSm camera. For each well, a grid of 3×3 fields (each of them 660 μm×492 μm) was automatically defined using the Mark&Find option of the AxioVision software. […] Exposure times were chosen so as to maximize the signal while avoiding saturation. They were kept constant through all images within one experiment. A software-based autofocus was performed on the DAPI channel, using a general offset of 8-10 μm. A 10 μm offset was added for the A488 channel. Images were analyzed semi-automatically with a custom-made ImageJ macro. […] The total number of nuclei and the area that they represent were recorded to compute the BrdU-positive to total nuclei ratios. […] Images with less than 10 labeled nuclei were counted manually with the Image J cell counter plugin.

[3] = system: HCC202; experiment: BrdU DNA incorporation assay; conditions: Homo sapiens, HCC202, 24 h
Procedure: as §1

[4] = system: SKBR3; experiment: BrdU DNA incorporation assay
Procedure: as §1

[5] = system: HCC1954; experiment: BrdU DNA incorporation assay
Procedure: as §1

[6] = system: MCF7; experiment: BrdU DNA incorporation assay
Procedure: as §1

[7] = system: breast cancer cell lines; experiment: BrdU incorporation assay, panel of 20 cell lines
Procedure: as §1

[8] = system: BT474; experiment: BrdU DNA incorporation assay
Procedure: as §1

[9] = system: MDAMB231; experiment: BrdU DNA incorporation assay
Procedure: as §1

[10] = system: ZR751; experiment: BrdU DNA incorporation assay
Procedure: as §1

[11] = system: MDAMB436; experiment: BrdU DNA incorporation assay
Procedure: as §1

[12] = system: HCC70; experiment: BrdU DNA incorporation assay
Procedure: as §1

[13] = system: MDAMB468; experiment: BrdU DNA incorporation assay
Procedure: as §1

[14] = system: HCC1569; experiment: BrdU DNA incorporation assay
Procedure: as §1

[15] = system: MDAMB361; experiment: BrdU DNA incorporation assay
Procedure: as §1

[16] = system: pRb phosphorylations; experiment: pRb phosphorylation in HCC1806 cells; format: cell-based, Human; conditions: not shown
Procedure: Equal amounts of whole cell extract proteins were separated according to molecular mass and immunodetected. CDK4-containing complexes were co-immunoprecipited as described (Paternot et al., 2003, J Biol Chem, 278, 26533-40; Bockstaele et al., 2006, Mol Cell Biol, 26, 5070-85). For 2D gel electrophoresis, cells were lysed in a buffer containing 7 M urea and 2 M thiourea. Frozen tumor slides were solubilised in 30 mM Tris cold buffer pH 8.5 containing 7 M urea, 2 M thiourea and 4% CHAPS with continuous vortexing until defreezing and kept under agitation during 20 min. After centrifugation at 14000 rpm for 10 min at 4° C., proteins were quantified. An equal volume of 2-D-sample buffer (7 M urea, 2 M thiourea, 2% CHAPS, 0.4% 3-10 Pharmalytes and 0.4% DTT) was added to samples normalized at 150 μg proteins. Proteins were separated by isoelectric focusing on immobilized linear pH gradient strips (pH 5 to 8, Biorad) before being separated by SDS-PAGE and immunoblotted as described (Bockstaele et al., 2006, Mol Cell Biol, 26, 5070-85).

[17] = system: MDAMB134VI; experiment: BrdU DNA incorporation assay
Procedure: as §1

[18] = system: HCC1937; experiment: BrdU DNA incorporation assay
Procedure: as §1

[19] = system: T47D; experiment: BrdU DNA incorporation assay
Procedure: as §1

[20] = system: HCC1500; experiment: BrdU DNA incorporation assay
Procedure: as §1

[21] = system: BT549; experiment: BrdU DNA incorporation assay
Procedure: as §1

[22] = system: BT20; experiment: BrdU DNA incorporation assay
Procedure: as §1

CC[C@H](CO)Nc1nc(NCc2ccccc2)c2ncn(C(C)C)c2n1 [Roscovitine]
effect of Roscovitine on the sensitivity of HCC1806 cells to PD0332991 ([1]; 2.5, 5, 10 μM Roscovitine with increasing concentrations of PD0332991, BrdU (FIG. 5)): dose-dependently increased the sensitivity

CC(=O)c1c(C)c2cnc(Nc3ccc(N4CCNCC4)cn3)nc2n(C2CCCC2)c1=O [PD0332991, palbociclib]
sensitivity of the cell line to PD0332991 ([2]; HCC38, basal-like): sensitive | IC50 ([2]; Homo sapiens, HCC38, 24 h): 15 nM | IC50 [3]: 25 nM | IC50 ([4]; Homo sapiens, SK-BR-3, 24 h): 15 nM | sensitivity of the cell line to PD0332991 ([4]; SKBR3, HER2+): sensitive | sensitivity of the cell line to PD0332991 ([5]; HCC1954, HER2+): sensitive | IC50 ([5]; Homo sapiens, HCC1954, 24 h): 25 nM | IC50 ([6]; Homo sapiens, MCF7, 24 h): 15 nM | sensitivity of the cell line to PD0332991 ([6]; MCF7, luminal): sensitive | cell lines in which the proportion of DNA replicating cells was reduced in a concentration-dependent way ([7]; BrdU incorporation): 13 out of these 20 cell lines | IC50 ([7]; Homo sapiens, read-out: IC50s with the BrdU incorporation assay): 5 to 50 nM | sensitivity of the cell line to PD0332991 ([8]; BT474, HER2+): sensitive | IC50 ([8]; Homo sapiens, BT-474, 24 h): 15 nM | IC50 ([9]; Homo sapiens, MDA-MB-231, 24 h): 15 nM | sensitivity of the cell line to PD0332991 ([9]; MDAMB231, basal-like): sensitive | IC50 ([10]; Homo sapiens, ZR-75-1, 24 h): 15 nM | sensitivity of the cell line to PD0332991 ([10]; ZR75-1): sensitive | IC50 ([11]; Homo sapiens, MDA-MB-436, 24 h): > 1000 nM | sensitivity of the cell line to PD0332991 ([11]; MDAMB436, basal-like): insensitive | sensitivity of the cell line to PD0332991 ([12]; HCC70, basal-like): insensitive | IC50 ([12]; Homo sapiens, HCC70, 24 h): > 1000 nM | IC50 ([13]; Homo sapiens, MDA-MB-468, 24 h): > 1000 nM | sensitivity of the cell line to PD0332991 ([13]; MDAMB468, basal-like): insensitive | proportion of cells in S phase measured with the BrDU assay ([1]; HCC1806 cells, 1 μM PD0332991 (FIG. 1C), average of 5 independent experiments): 80 % of the control value | IC50 ([1]; Homo sapiens, HCC1806, 24 h): 10 nM | sensitivity of the cell line to palbociclib ([14]; HCC1569): insensitive | IC50 ([14]; Homo sapiens, HCC1569, 24 h): > 1000 nM | IC50 ([15]; Homo sapiens, MDA-MB-361, 24 h): 10 nM | sensitivity of the cell line to PD0332991 ([15]; MDAMB361, HER2+): sensitive | inhibition of pRb phosphorylations in response to PD0332991 [16]: marked inhibition | IC50 ([17]; Homo sapiens, MDA-MB-134-VI, 24 h): 3 nM | sensitivity of the cell line to PD0332991 ([17]; MDAMB134IV as printed, luminal): sensitive | sensitivity of the cell line to PD0332991 ([18]; HCC1937, basal-like): insensitive | IC50 ([18]; Homo sapiens, HCC1937, 24 h): > 1000 nM | IC50 ([19]; Homo sapiens, 24 h): 15 nM | sensitivity of the cell line to PD0332991 ([19]; luminal): sensitive | sensitivity of the cell line to PD0332991 ([20]; HCC1500, basal-like): sensitive | IC50 ([20]; Homo sapiens, HCC1500, 24 h): 10 nM | sensitivity of the cell line to PD0332991 ([21]; BT459 as printed, basal-like): insensitive | IC50 ([21]; Homo sapiens, BT-549, 24 h): > 1000 nM | sensitivity of the cell line to PD0332991 ([22]; BT20, basal-like): sensitive | IC50 ([22]; Homo sapiens, BT-20, 24 h): 3 nM
